Laboratory results taken from publication PMC6934184, “Selective DNA-PKcs inhibition extends the therapeutic index of localized radiotherapy and chemotherapy” (The Journal of Clinical Investigation, 2019).

Target: T1, PRKACB (PRKAC beta) (Homo sapiens, UniProt P22694)
T1 construct: purchased Thermo Fisher Scientific (Life Technologies) SelectScreen
Assay: SelectScreen LanthaScreen
Format: binding
Conditions: read-out: % displacement
Outline: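 Percent values come from Thermo SelectScreen profiling of NU5455, combining activity and binding assays. CSF1R was run in Z'LYTE format at Km app ATP, and CAMK1 in Adapta format with ATP listed at 10.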

Compound `CN(C(=O)CN1CCOCC1)c1ccc2sc3c(-c4cccc5c(=O)cc(N6CC7CCC(C6)O7)oc45)cccc3c2c1` [NU5455] has an inhibition at 1 µM of -6.8%.
